Laboratory results as given in ChEMBL document CHEMBL5344413, “Discovery of 4-(1,2,4-Oxadiazol-5-yl)azepan-2-one Derivatives as a New Class of Cannabinoid Type 2 Receptor Agonists for the Treatment of Inflammatory Pain” (J Med Chem, 2023).
Calls of active or inactive are those of the source.

Columns and labels:
[1] = Half life in BALB/c mouse at 1 mg/kg, iv; format: ADME, organism-based; conditions: in vivo
Cannabinoid receptor 2 [2] = target: T1, Cannabinoid receptor 2 (Homo sapiens, UniProt P34972); assay: Agonist activity at LgBiT-fused CB2 receptor (unknown origin) coexpressed with miniGalphai-SmBiT in HEK293T cells assessed as G-protein recruitment by measuring complementation measured after 10 mins by NanoBiT luciferase assay; format: functional, cell-based
T1 sequence (P34972 whole entry, the tested form may be a part): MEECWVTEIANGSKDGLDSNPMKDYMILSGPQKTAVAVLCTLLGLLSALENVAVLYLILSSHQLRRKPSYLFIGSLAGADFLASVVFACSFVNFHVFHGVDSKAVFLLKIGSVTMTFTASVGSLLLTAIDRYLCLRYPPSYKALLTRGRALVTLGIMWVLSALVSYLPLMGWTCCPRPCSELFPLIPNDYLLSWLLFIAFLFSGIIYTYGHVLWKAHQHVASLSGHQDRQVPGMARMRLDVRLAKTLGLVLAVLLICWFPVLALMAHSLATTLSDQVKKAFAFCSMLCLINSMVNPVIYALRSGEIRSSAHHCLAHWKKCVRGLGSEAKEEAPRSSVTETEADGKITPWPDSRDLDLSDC

[3] = Clearance in BALB/c mouse at 5 mg/kg, po; format: ADME, organism-based; conditions: in vivo
[4] = Half life in rat liver microsomes at 10 uM; format: ADME, Microsome
[5] = Cmax in BALB/c mouse at 5 mg/kg, ip; format: ADME, organism-based; set-up: dose 5 mg/kg, route ip; conditions: in vivo
[6] = Metabolic stability of the compound in rat liver microsomes assessed as parent compound remaining at 10 uM measured after 60 mins; format: ADME, Microsome; conditions: read-out: Stability
Mus musculus [7] = assay: (§1) Antinociceptive activity against ip dosed carrageenan-induced inflammatory C57BL/6 mouse model assessed as reduction in hyperalgesia by measuring increase in paw withdrawal threshold measured at 5 hrs and 2 hrs following carrageenan and compound challenge respectively by plantar esthesiometer analysis; format: functional, organism-based; conditions: dose 5-20 mg/kg
[8] = Tmax in BALB/c mouse at 5 mg/kg, ip; format: ADME, organism-based; conditions: in vivo
[9] = Half life in BALB/c mouse at 5 mg/kg, ip; format: ADME, organism-based; conditions: in vivo
[10] = AUC(0 to infinity) in BALB/c mouse at 20 mg/kg, po; format: ADME, organism-based; set-up: dose 20 mg/kg, route po; conditions: in vivo
[11] = Intrinsic clearance in rat liver microsomes at 10 uM measured per mg protein; format: ADME, Microsome; conditions: read-out: CLH
[12] = Half life in BALB/c mouse at 20 mg/kg, po; format: ADME, organism-based; conditions: in vivo
[13] = Protein binding in human plasma by dialysis method; format: ADME, cell-free; conditions: read-out: PPB (converted)
[14] = Half life in mouse liver microsomes at 10 uM; format: ADME, Microsome
Homo sapiens = organism: Homo sapiens; assay: Selectivity ratio of EC50 for agonist activity at human CB1 receptor expressed in CHO cells to EC50 for agonist activity at human CB2 receptor expressed in CHO cells; format: cell-based
[15] = Clearance in BALB/c mouse at 5 mg/kg, ip; format: ADME, organism-based; conditions: in vivo
[16] = MRT(0 to t) in BALB/c mouse at 5 mg/kg, ip; format: ADME, organism-based; conditions: in vivo
Cannabinoid receptor 2 [17] = target: T1, Cannabinoid receptor 2; assay: Agonist activity at N-terminal HA/Flag-tagged CB2 receptor (unknown origin) expressed in CHO cells assessed as increase in Akt phosphorylation measured after 15 mins by western blot analysis; format: functional, cell-based; conditions: filed as agonist, dose 12-300 nM
[18] = AUC(0 to t) in BALB/c mouse at 5 mg/kg, po; format: ADME, organism-based; set-up: dose 5 mg/kg, route po; conditions: in vivo
Mus musculus [19] = assay: as §1, with “against” for “against ip dosed”, “threshold at 20 mg/kg, ip administered with CB2 receptor antagonist, AM630 at 10 mins prior to drug challenge and” for “threshold”; format: functional, organism-based
[20] = Protein binding in rat plasma by dialysis method; format: ADME, cell-free; conditions: read-out: PPB (converted)
[21] = Metabolic stability of the compound in mouse liver microsomes assessed as parent compound remaining at 10 uM measured after 60 mins; format: ADME, Microsome; conditions: read-out: Stability
Cannabinoid receptor 2 [22] = target: T1, Cannabinoid receptor 2; assay: Agonist activity at N-terminal HA/Flag-tagged CB2 receptor (unknown origin) expressed in CHO cells assessed as increase in ERK1/2 phosphorylation measured after 15 mins by western blot analysis; format: functional, cell-based; conditions: filed as agonist, dose 12-300 nM
[23] = Toxicity against C57BL/6 mouse assessed as change in body temperature at 20 mg/kg, ip measured within 4 hrs by thermometer analysis; format: organism-based; conditions: in vivo
[24] = Oral bioavailability in BALB/c mouse at 5 mg/kg; format: ADME, organism-based; conditions: in vivo
Cannabinoid receptor 1 = Cannabinoid receptor 1 (Homo sapiens, UniProt P21554); assay: Agonist activity at human CB1 receptor expressed in CHO cells assessed as inhibition of forskolin-stimulated intracellular cAMP accumulation measured after 30 mins by Glosensor assay; format: cell-based
Chain of Cannabinoid receptor 1 (P21554 whole entry): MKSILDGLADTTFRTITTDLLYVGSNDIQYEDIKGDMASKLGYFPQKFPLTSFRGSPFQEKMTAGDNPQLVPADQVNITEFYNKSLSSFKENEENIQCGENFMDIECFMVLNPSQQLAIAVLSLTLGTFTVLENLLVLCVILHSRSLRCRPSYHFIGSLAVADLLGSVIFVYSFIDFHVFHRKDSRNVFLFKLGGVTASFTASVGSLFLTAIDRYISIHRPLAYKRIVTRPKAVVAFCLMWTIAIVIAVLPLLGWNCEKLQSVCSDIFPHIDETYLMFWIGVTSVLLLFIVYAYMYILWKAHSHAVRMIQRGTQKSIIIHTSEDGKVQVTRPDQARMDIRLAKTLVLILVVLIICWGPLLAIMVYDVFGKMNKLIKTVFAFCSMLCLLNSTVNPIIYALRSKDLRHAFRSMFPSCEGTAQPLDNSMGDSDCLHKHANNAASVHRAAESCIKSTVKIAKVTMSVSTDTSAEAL

CHO [25] = assay: Induction of ERK1/2 phosphorylation in Chinese hamster CHO cells at 1000 nM measured after 15 mins by western blot analysis; format: cell-based; conditions: Cricetulus griseus
[26] = Protein binding in mouse plasma by dialysis method; format: ADME, cell-free; conditions: read-out: PPB (converted)
[27] = Tmax in BALB/c mouse at 1 mg/kg, iv; format: ADME, organism-based; conditions: in vivo
[28] = Intrinsic clearance in human liver microsomes at 10 uM measured per mg protein; format: ADME, Microsome; conditions: read-out: CLH
[29] = Cmax in BALB/c mouse at 5 mg/kg, po; format: ADME, organism-based; set-up: dose 5 mg/kg, route po; conditions: in vivo
[30] = Metabolic stability of the compound in human liver microsomes assessed as parent compound remaining at 10 uM measured after 60 mins; format: ADME, Microsome; conditions: read-out: Stability
[31] = Intrinsic clearance in human liver at 10 uM measured per kg body weight; format: ADME, tissue-based
[32] = AUC(0 to t) in BALB/c mouse at 1 mg/kg, iv; format: ADME, organism-based; set-up: dose 1 mg/kg, route iv; conditions: in vivo
[33] = Intrinsic clearance in mouse liver microsomes at 10 uM measured per mg protein; format: ADME, Microsome; conditions: read-out: CLH
[34] = Toxicity against C57BL/6 mouse assessed as induction of catalepsy at 20 mg/kg, ip measured within 4 hrs; format: organism-based; conditions: in vivo
[35] = Half life in human liver microsomes at 10 uM; format: ADME, Microsome
Mus musculus [36] = assay: (§2) Antinociceptive activity against carrageenan-induced inflammatory C57BL/6 mouse model assessed as reduction in paw thickness at 20 mg/kg, ip measured at 5 hrs and 2 hrs following carrageenan and compound challenge respectively by digital caliper analysis; format: functional, organism-based
Mus musculus [37] = assay: as §2, with “mg/kg, ip administered with CB2 receptor antagonist, AM630 at 10 mins prior to drug challenge and measured at” for “mg/kg, ip measured at”; format: functional, organism-based
[38] = AUC(0 to t) in BALB/c mouse at 5 mg/kg, ip; format: ADME, organism-based; set-up: dose 5 mg/kg, route ip; conditions: in vivo
CHO [39] = assay: Induction of Akt phosphorylation in Chinese hamster CHO cells at 1000 nM measured after 15 mins by western blot analysis; format: cell-based; conditions: Cricetulus griseus
CHO [40] = assay: Agonist activity at CB2 receptor W1945.43A mutant (unknown origin) expressed in CHO cells assessed as inhibition of forskolin-stimulated intracellular cAMP accumulation measured after 30 mins by Glosensor assay; format: cell-based; conditions: Homo sapiens
[41] = Cmax in BALB/c mouse at 1 mg/kg, iv; format: ADME, organism-based; set-up: dose 1 mg/kg, route iv; conditions: in vivo
[42] = Clearance in BALB/c mouse at 1 mg/kg, iv; format: ADME, organism-based; conditions: in vivo
[43] = Half life in BALB/c mouse at 5 mg/kg, po; format: ADME, organism-based; conditions: in vivo
Mus musculus [44] = assay: as §1, with “against” for “against ip dosed”, “threshold at 20 mg/kg, po” for “threshold”; format: functional, organism-based
[45] = test system: Cannabinoid receptor 2 (Homo sapiens), P34972 [UNDEFINED MUTATION]; assay: Agonist activity at CB2 receptor F183ECL2A mutant (unknown origin) expressed in CHO cells assessed as inhibition of forskolin-stimulated intracellular cAMP accumulation measured after 30 mins by Glosensor assay; format: cell-based
Chain of Cannabinoid receptor 2 (Homo sapiens), P34972 [UNDEFINED MUTATION] (P34972 whole entry, looked up, stated change not applied): as the sequence (P34972 whole entry, the tested form may be a part) above

Cannabinoid receptor 2 [46] = target: T1, Cannabinoid receptor 2; assay: Agonist activity at human CB2 receptor expressed in CHO cells assessed as inhibition of forskolin-stimulated intracellular cAMP accumulation measured after 30 mins by Glosensor assay; format: functional, cell-based
[47] = Tmax in BALB/c mouse at 5 mg/kg, po; format: ADME, organism-based; conditions: in vivo
[48] = Intrinsic clearance in rat liver at 10 uM measured per kg body weight; format: ADME, tissue-based
Cannabinoid receptor 2 [49] = target: T1, Cannabinoid receptor 2; assay: Agonist activity at LgBiT-fused CB2 receptor (unknown origin) coexpressed with miniGalphai-SmBiT in HEK293T cells assessed as G-protein recruitment measured after 10 mins in presence of CB2 receptor antagonist, AM630 by NanoBiT luciferase assay; format: functional, cell-based
Cannabinoid receptor 2 [50] = target: T1, Cannabinoid receptor 2; assay: Agonist activity at N-terminal HA/Flag-tagged CB2 receptor (unknown origin) expressed in CHO cells assessed as increase in ERK1/2 phosphorylation at 300 nM measured after 15 mins in presence of CB2 receptor antagonist, AM630 by western blot analysis; format: functional, cell-based
[51] = Bioavailability in BALB/c mouse at 5 mg/kg, ip; format: ADME, organism-based; conditions: in vivo
[52] = MRT(0 to t) in BALB/c mouse at 5 mg/kg, po; format: ADME, organism-based; conditions: in vivo
CHO [53] = assay: Agonist activity at CB2 receptor F872.57A mutant (unknown origin) expressed in CHO cells assessed as inhibition of forskolin-stimulated intracellular cAMP accumulation measured after 30 mins by Glosensor assay; format: cell-based; conditions: Homo sapiens
[54] = Intrinsic clearance in mouse liver at 10 uM measured per kg body weight; format: ADME, tissue-based
Cannabinoid receptor 2 [55] = target: T1, Cannabinoid receptor 2; assay: Agonist activity at N-terminal HA/Flag-tagged CB2 receptor (unknown origin) expressed in CHO cells assessed as increase in Akt phosphorylation at 300 nM measured after 15 mins in presence of CB2 receptor antagonist, AM630 by western blot analysis; format: functional, cell-based
[56] = MRT(0 to t) in BALB/c mouse at 1 mg/kg, iv; format: ADME, organism-based; conditions: in vivo
Cannabinoid receptor 2 [57] = target: T1, Cannabinoid receptor 2; assay: Agonist activity at human CB2 receptor expressed in CHO cells assessed as inhibition of forskolin-stimulated intracellular cAMP accumulation measured after 30 mins by Glosensor assay relative to control; format: functional, cell-based; conditions: filed as agonist

half-life [1]: 70.8 min | EC50 (Cannabinoid receptor 2 [2]): 84.7 nM | CL/F [3]: 50.8 mL/min/kg | half-life at 10 µM [4]: 10.7 min | Cmax [5]: 1080 ng/mL | remaining at 1 h, 10 µM [6]: 1.83% | Tmax [8]: 19.8 min | half-life [9]: 56.4 min | AUC(0-inf) [10]: 18000 ng·h/mL | microsomal CLint at 10 µM [11]: 130 µL/min/mg | half-life [12]: 224 min | fraction unbound [13]: 0.011 | half-life at 10 µM [14]: 13.1 min | CL/F [15]: 45.8 mL/min/kg | MRT last [16]: 103 min | Activity (Cannabinoid receptor 2 [17]): Dose-Dependent Effect | AUC(0-t) [18]: 1660 ng·h/mL | fraction unbound [20]: 0.074 | remaining at 1 h, 10 µM [21]: 3.15% | Activity (Cannabinoid receptor 2 [22]): Dose-Dependent Effect | bioavailability [24]: 80.5% | fraction unbound [26]: 0.032 | Tmax [27]: 4.8 min | microsomal CLint at 10 µM [28]: 23 µL/min/mg | Cmax [29]: 621 ng/mL | remaining at 1 h, 10 µM [30]: 46.3% | CLH [31]: 28.8 mL/min/kg | AUC(0-t) [32]: 413 ng·h/mL | microsomal CLint at 10 µM [33]: 106 µL/min/mg | half-life at 10 µM [35]: 60.3 min | AUC(0-t) [38]: 1830 ng·h/mL | Cmax [41]: 615 ng/mL | clearance [42]: 41.2 mL/min/kg | half-life [43]: 42 min | Activity [45]: inactive | EC50 (Cannabinoid receptor 2 [46]): 21 nM | Tmax [47]: 25.2 min | CLH [48]: 232 mL/min/kg | Activity (Cannabinoid receptor 2 [49]): inactive | Activity (Cannabinoid receptor 2 [50]): inactive | bioavailability [51]: 88.5% | MRT last [52]: 128 min | CLH [54]: 415 mL/min/kg | Activity (Cannabinoid receptor 2 [55]): inactive | MRT last [56]: 49.8 min | Emax (Cannabinoid receptor 2 [57]): 87%
Structure (SMILES): O=C1CC(c2nc(-c3ccc(F)c4cn[nH]c34)no2)CCCN1c1ccc(F)cc1 (centres undefined)
Activity (Mus musculus [7]): Dose-Dependent Effect | Ratio EC50 (Homo sapiens): > 1430 | Activity (Mus musculus [19]): inactive | Activity [23]: Non-Toxic | EC50 (Cannabinoid receptor 1): > 30000 nM | Activity (CHO [25]): inactive | Activity [34]: Non-Toxic | Activity (Mus musculus [36]): Active | Activity (Mus musculus [37]): inactive | Activity (CHO [39]): inactive | Activity (CHO [40]): inactive | Activity (Mus musculus [44]): Active | Activity (CHO [53]): inactive
